Source: patent US10668283B2, “Brain stimulation tool configuration” (Elminda Ltd., priority 2014, dated 2020)

How the values were obtained:
Assay type in all cases: in vivo, human
ADHD subject = experiment: BNA pattern similarity from EEG data of ADHD subjects before and after MPH treatment
From the text: The BNA patterns shown in FIGS. 6A-D are associated subject-specific BNA patterns constructed from EEG data recorded from a particular ADHD subject. The black dots in FIGS. 6A-D show the locations of the EEG electrodes. The color codes in these BNA patterns are the same as defined above. The subject-specific BNA patterns shown in FIGS. 6A-B describe the association of the ADHD subject to a group of untreated ADHD subjects, and the BNA patterns shown in FIGS. 6C-D describe the association of the ADHD subject to a group of ADHD subjects all treated with methylphenidate (MPH). The subject-specific BNA patterns shown in FIGS. 6A and 6C are based on EEG data recorded from the ADHD subject before any treatment, and subject-specific BNA patterns shown in FIGS. 6B and 6D are based on EEG data recorded from the ADHD subject following a treatment with MPH.
The baseline annotated BNA pattern constructed from the group of untreated ADHD subjects, and the baseline annotated BNA pattern constructed from the same group of subjects, but following treatment with MPH are shown in FIGS. 6E and 6F, respectively.
A BNA pattern similarity was calculated for each of the subject-specific BNA patterns shown in FIGS. 6A-D. The calculated similarity corresponding to the BNA pattern of FIG. 6A is 0.73, the calculated similarity corresponding to the BNA pattern of FIG. 6B is 0.19, the calculated similarity corresponding to the BNA pattern of FIG. 6C is 0.56, and the calculated similarity corresponding to the BNA pattern of FIG. 6D is 0.6.
The BNA patterns shown in FIGS. 7A-D were constructed from EEG data recorded from a different ADHD subject, which was also treated with MPH according to the same protocol as described above with respect to the responder subject of FIGS. 6A-D. The black dots in FIGS. 7A-D show the locations of the EEG electrodes, and the color codes in these BNA patterns is the same as defined above. Thus, the subject-specific BNA patterns shown in FIGS. 7A-B describe the association of the ADHD subject to a group of untreated ADHD subjects, and the BNA patterns shown in FIGS. 7C-D describe the association of the ADHD subject to a group of ADHD subjects all treated with methylphenidate (MPH). The subject-specific BNA patterns shown in FIGS. 7A and 7C are based on EEG data recorded from the ADHD subject before any treatment, and subject-specific BNA patterns shown in FIGS. 7B and 7D are based on EEG data recorded from the ADHD subject following a treatment with MPH.

groups of subjects = experiment: Group BNA patterns from EEG data recorded during a working memory test (cue/probe face matching); conditions: memorization and retrieval, versus placebo
From the text: FIGS. 10A-H show group BNA patterns constructed from EEG data recorded from two groups of subjects during a working memory test. The black dots in FIGS. 10A-H show the locations of the EEG electrodes, and the color codes in these BNA patterns is the same as defined above. During the test, each subject of the group was asked to memorize an image of a human face (referred to as the “cue”). Two seconds later, the subject was again presented with an image of a human face (referred to as the “probe”) and was asked to determine whether the probe matches the cue.
The BNA patterns of the first group are shown in FIGS. 10A-D. FIGS. 10A and 10B are group BNA patterns constructed following treatment with a placebo (referred to below as placebo A), and FIGS. 10C and 10D are group BNA patterns constructed following treatment with a Scopolamine. The BNA patterns of the second group are shown in FIGS. 10E-H, where FIGS. 10E and 10F are group BNA patterns constructed following treatment with a placebo (referred to below as placebo B), and FIGS. 10G and 10H are BNA patterns constructed following treatment with a Ketamine.
The BNA pattern of FIGS. 10A, 10C, 10E and 10G were constructed from the data acquired during the time at which the cue was presented and are recognized by the present inventor as containing information pertaining to the memorization process in the brain (also known in the literature as “encoding”). The BNA patterns of FIGS. 10B, 10D, 10F and 10H were constructed from the data acquired during the time at which the probe was presented, and are recognized by the present inventor as containing information pertaining to the retrieval process in the brain. It is noted that the BNA patterns of FIGS. 10A-H describe differentiating activity networks. Thus, for example, the BNA pattern of FIG. 10A describes the brain activity during cue that most differentiated between placebo A and Scopolamine, and the BNA pattern of […] describes the brain activity during cue that most differentiated between placebo B and Ketamine.

[1] = tested on: healthy volunteer subjects; experiment: BNA pattern similarity from EEG data of healthy volunteers during an attention-related oddball task after scopolamine; clinical behavioral endpoint; conditions: for BNA pattern similarity to baseline BNA pattern of healthy subjects following placebo: following scopolamine
From the text: FIGS. 8A-D show associated subject-specific BNA patterns constructed from EEG data recorded from two healthy volunteer subjects. The black dots in FIGS. 8A-D show the locations of the EEG electrodes, and the color codes in these BNA patterns are the same as defined above. The subject-specific BNA patterns shown in FIGS. 8A-D describe the association of the subjects to a group of healthy subjects following treatment with a placebo drug and while performing an attention task related oddball task.
FIGS. 8A and 8C are subject-specific BNA patterns constructed from EEG data collected from a first subject (FIG. 8A) and a second subject (FIG. 8C) following treatment with a placebo, and FIGS. 8B and 8D are subject-specific BNA patterns constructed from EEG data collected from the first subject (FIG. 8B) and the second subject (FIG. 8D) following treatment with a scopolamine drug. Scopolamine is an anticholinergic drug with inhibitory effect on M2-cholinergic receptors of excited type. It has an inhibitory effect on the cerebral cortex, typically inducing slight-anesthetic effect.
A BNA pattern similarity was calculated for each of the subject-specific BNA patterns shown in FIGS. 8A-D. The calculated similarities are 0.937, 0.079, 1.0 and 0.94, respectively. It is recognized by the present inventors that these similarity values indicate that the responsivity to scopolamine is high for the first subject (FIGS. 8A and 8B) and low for the second subject (FIGS. 8C and 8D).

healthy volunteers = experiment: Scopolamine induced cognitive impairment model: ΔBNA scores in Auditory Oddball Task against SEM of the normative database; conditions: scopolamine 0.4 mg, Novel stimulus, connectivity score; only 2 patients receiving placebo
From the text: The task chosen for this study was the Auditory Oddball Task, but other tasks are not excluded from the scope of the present invention. FIG. 21 is a schematic representation of an Auditory Oddball Task used in this study. The task included 600 repetitive 1000 ms auditory stimulations of which 80% were 2000 Hz stimuli (Frequent—blue circles), 10% were 1000 Hz stimuli requiring a motor response (Target—red circles) and 10% were rare non-targets composed of various sounds (Novel—yellow star). The stimuli were separated by 1500 ms intervals. The sound was delivered through a headset at a sound pressure level of 70 dB.
A pharmacological model study included 13 healthy volunteers of both genders, Aged 18-45. The volunteers were subjected to 3 Consecutive BNA sessions were, 1 week apart. A first session was used as a baseline, one of the two other sessions included administration of scopolamine (0.4 mg), and the other of the two other sessions included administration of placebo. The second and third sessions were at random order, double blind. ΔBNA Score values (Baseline—Placebo and Baseline—Drug) were evaluated against SEM values.
Shown are Plots of the ΔBNA (Baseline—treatment) connectivity score values for the Novel response. Each symbol is a single subject, tested once following Drug and once following Placebo. […]

Row | SMILES | BNA pattern similarity to the group of untreated ADHD subjects (ADHD subject; different ADHD subject (FIG. 7B), following treatment with MPH, 0 before treatment) | BNA pattern similarity to the group of ADHD subjects treated with MPH (ADHD subject; different ADHD subject (FIG. 7D), following treatment with MPH, 0.06 before treatment) | responsiveness of the subject to the treatment as indicated by similarity values (ADHD subject; different ADHD subject (FIGS. 7A-D)) | BNA pattern similarity to the baseline BNA pattern for untreated ADHD group (ADHD subject; first ADHD subject (FIG. 6B), following single dose treatment with MPH, 0.73 before treatment) | BNA pattern similarity to the baseline BNA pattern for the treated ADHD group (ADHD subject; first ADHD subject (FIG. 6D), following single dose treatment with MPH, 0.56 before treatment) | responsiveness of the subject to the treatment as indicated by similarity values (ADHD subject; first ADHD subject (FIGS. 6A-D)) | effect on central and frontal activation in group BNA pattern (groups of subjects) | effect on fronto-parietal part / connectivity of group BNA pattern (groups of subjects) | effect on right lateralization in group BNA pattern (groups of subjects) | BNA pattern similarity to baseline BNA pattern of healthy subjects following placebo ([1]; first subject (FIG. 8B), 0.937 following placebo) | responsivity to scopolamine as indicated by similarity values ([1]; first subject (FIGS. 8A and 8B)) | decrease in behavioral endpoint (clinical observations) ([1]; first subject, following treatment with scopolamine) | BNA pattern similarity to baseline BNA pattern of healthy subjects following placebo ([1]; second subject (FIG. 8D), 1.0 following placebo) | responsivity to scopolamine as indicated by similarity values ([1]; second subject (FIGS. 8C and 8D)) | change in behavioral endpoint (clinical observations) ([1]; second subject, following treatment with scopolamine) | patients with post-treatment BNA scores more than 2 SEM lower than the baseline score (healthy volunteers)
1 | COC(=O)C(c1ccccc1)C1CCCCN1 (stereo not drawn) [MPH, methylphenidate] | 0 | 0 | not responsive to the treatment | 0.19 | 0.6 | responsive to the treatment | – | – | – | – | – | – | – | – | – | –
2 | CNC1(c2ccccc2Cl)CCCCC1=O (stereo not drawn) [ketamine] | – | – | – | – | – | – | increased central and frontal activation | No significant change in the fronto-parietal part of the BNA pattern | decreased right lateralization | – | – | – | – | – | – | –
3 | CN1[C@@H]2C[C@@H](OC(=O)[C@H](CO)c3ccccc3)C[C@H]1[C@@H]1O[C@@H]12 [scopolamine] | – | – | – | – | – | – | extensive compensatory central and frontal activation | low connectivity between frontal and parietal regions | – | 0.079 | high | 70% | 0.94 | low | no change in behavioral endpoint | Eight out of 13
